Experimental data: patent publication US12110294B2, “CD73 compounds” (Gilead Sciences, Inc., priority 2020, dated 2024)

Molecular target: T1, CD73 activity in MDA-MB-231-GFP cells (Homo sapiens, UniProt P21589)
T1 construct: endogenous in cells; host or cells: MDA-MB-231-GFP cells
T1 sequence (P21589 27-549): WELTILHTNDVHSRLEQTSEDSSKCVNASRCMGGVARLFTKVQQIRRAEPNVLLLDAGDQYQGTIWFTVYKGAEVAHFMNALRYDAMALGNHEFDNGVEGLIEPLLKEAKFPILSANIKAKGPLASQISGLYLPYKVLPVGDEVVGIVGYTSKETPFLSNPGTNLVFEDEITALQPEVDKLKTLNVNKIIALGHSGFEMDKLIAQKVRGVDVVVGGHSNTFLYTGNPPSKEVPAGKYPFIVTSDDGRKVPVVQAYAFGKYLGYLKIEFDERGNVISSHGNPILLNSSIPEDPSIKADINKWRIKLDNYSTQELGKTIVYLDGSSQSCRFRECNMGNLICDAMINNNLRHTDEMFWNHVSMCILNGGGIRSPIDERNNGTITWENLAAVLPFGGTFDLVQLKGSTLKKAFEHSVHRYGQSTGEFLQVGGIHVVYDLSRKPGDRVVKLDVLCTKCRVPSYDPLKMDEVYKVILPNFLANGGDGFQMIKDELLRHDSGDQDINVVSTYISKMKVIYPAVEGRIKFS
Experiment: MDA-MB-231 Cell Based CD73 Activity Assay (DMEM)
Details: 3000 cells per well, DMEM medium with 10% human plasma, overnight compound treatment, AMP 200 uM
Description: MDA-MB-231 Cell Based CD73 Activity Assay (DMEM) MDA-MB-231-GFP cells were seeded in 384-well plates (Greiner 781946) at a density of 3000 cells per well in 50 μL of DMEM medium with 10% HP (human plasma). Cells were plated into assay plate with compounds pre-spotted, for an overnight compound treatment. 50 uL of 400 uM AMP (final concentration will be 200 uM) was added using Bio-tek dispenser. Plates were incubated for 100 mins. […] The samples were analyzed using Rapid fire.

| EC50 [nM] | SMILES |
| --- | --- |
| 19.2 | O=C(c1ccc([C@H]2C[C@@H]2c2cc(-c3c[nH]c(=O)[nH]c3=O)nn3ccnc23)cc1)N1C[C@@H](F)[C@@H](F)C1 (racemic) [Example 301, 5-(8-((2S,2S)-2-(4-((3S,4R)-3,4-difluoropyrrolidine-1-carbonyl)phenyl)cyclopropyl)imidazo[1,2-b]pyridazin-6-yl)pyrimidine-2,4(1H,3H)-dione] |
| 6.99 | O=C(c1cccc([C@H]2C[C@@H]2c2cc(-c3c[nH]c(=O)[nH]c3=O)nn3ccnc23)c1)N1C[C@@H](F)[C@@H](F)C1 (racemic) [Example 302, 5-(8-((2S,2S)-2-(3-((3S,4R)-3,4-difluoropyrrolidine-1-carbonyl)phenyl)cyclopropyl)imidazo[1,2-b]pyridazin-6-yl)pyrimidine-2,4(1H,3H)-dione] |
| 27.7 | O=C(c1ccc([C@H]2C[C@@H]2c2cc(-c3c[nH]c(=O)[nH]c3=O)nn3ccnc23)cc1)N1CC(F)(F)C(F)(F)C1 (racemic) [Example 303, 5-(8-((1S,2S)-2-(4-(3,3,4,4-tetrafluoropyrrolidine-1-carbonyl)phenyl)cyclopropyl)imidazo[1,2-b]pyridazin-6-yl)pyrimidine-2,4(1H,3H)-dione] |
| 3.04 | O=C(c1cccc([C@H]2C[C@@H]2c2cc(-c3c[nH]c(=O)[nH]c3=O)nn3ccnc23)c1)N1CC(F)(F)C(F)(F)C1 (racemic) [Example 304, 5-(8-((2S,2S)-2-(3-(3,3,4,4-tetrafluoropyrrolidine-1-carbonyl)phenyl)cyclopropyl)imidazo[1,2-b]pyridazin-6-yl)pyrimidine-2,4(1H,3H)-dione] |
| 21.2 | O=C(c1ccc([C@H]2C[C@@H]2c2cc(-c3c[nH]c(=O)[nH]c3=O)nn3ccnc23)cc1)N1CCC(F)(F)C1 (racemic) [Example 305, 5-(8-((2S,2S)-2-(4-(3,3-difluoropyrrolidine-1-carbonyl)phenyl)cyclopropyl)imidazo[1,2-b]pyridazin-6-yl)pyrimidine-2,4(1H,3H)-dione] |
| 1.41 | O=C(c1cccc([C@H]2C[C@@H]2c2cc(-c3c[nH]c(=O)[nH]c3=O)nn3ccnc23)c1)N1CCC(F)(F)C1 (racemic) [Example 306, 5-(8-((2S,2S)-2-(3-(3,3-difluoropyrrolidine-1-carbonyl)phenyl)cyclopropyl)imidazo[1,2-b]pyridazin-6-yl)pyrimidine-2,4(1H,3H)-dione] |
| 96.1 | CC1(C)CCN(C(=O)c2ccc([C@H]3C[C@@H]3c3cc(-c4c[nH]c(=O)[nH]c4=O)nn4ccnc34)cc2)C1 (racemic) [Example 307, 5-(8-((2S,2S)-2-(4-(3,3-dimethylpyrrolidine-1-carbonyl)phenyl)cyclopropyl)imidazo[1,2-b]pyridazin-6-yl)pyrimidine-2,4(1H,3H)-dione] |
| 6.47 | CC1(C)CCN(C(=O)c2cccc([C@H]3C[C@@H]3c3cc(-c4c[nH]c(=O)[nH]c4=O)nn4ccnc34)c2)C1 (racemic) [Example 308, 5-(8-((1S,2S)-2-(3-(3,3-dimethylpyrrolidine-1-carbonyl)phenyl)cyclopropyl)imidazo[1,2-b]pyridazin-6-yl)pyrimidine-2,4(1H,3H)-dione] |
| 208 | O=c1[nH]cc(-c2cc([C@H]3C[C@@H]3c3ccccc3OC(F)(F)F)c3nccn3n2)c(=O)[nH]1 (racemic) [Example 309, 5-(8-((1S,2S)-2-(2-(trifluoromethoxy)phenyl)cyclopropyl)imidazo[1,2-b]pyridazin-6-yl)pyrimidine-2,4(1H,3H)-dione] |
| 11.6 | N#Cc1cncc([C@H]2C[C@@H]2c2cc(-c3c[nH]c(=O)[nH]c3=O)nn3ccnc23)c1 (racemic) [Example 311, 5-((2S,2S)-2-(6-(2,4-dioxo-1,2,3,4-tetrahydropyrimidin-5-yl)imidazo[1,2-b]pyridazin-8-yl)cyclopropyl)nicotinonitrile] |
| 4.17 | CNC(=O)c1ccc([C@H]2C[C@@H]2c2cc(-c3c[nH]c(=O)[nH]c3=O)nn3c(F)cnc23)cc1 (racemic) [Example 312, 4-((2S,2S)-2-(6-(2,4-dioxo-1,2,3,4-tetrahydropyrimidin-5-yl)-3-fluoroimidazo[1,2-b]pyridazin-8-yl)cyclopropyl)-N-methylbenzamide] |
| 11.2 | Cc1nc2cc([C@H]3C[C@@H]3c3cc(-c4c[nH]c(=O)[nH]c4=O)nn4ccnc34)ccc2s1 (racemic) [Example 321, 5-(8-((2S,2S)-2-(2-methylbenzo[d]thiazol-5-yl)cyclopropyl)imidazo[1,2-b]pyridazin-6-yl)pyrimidine-2,4(1H,3H)-dione] |
| 2.66 | Cn1ncc2ccc([C@H]3C[C@@H]3c3cc(-c4c[nH]c(=O)[nH]c4=O)nn4ccnc34)cc21 (racemic) [Example 326, 5-(8-((1S,2S)-2-(1-methyl-1H-indazol-6-yl)cyclopropyl)imidazo[1,2-b]pyridazin-6-yl)pyrimidine-2,4(1H,3H)-dione] |
| 22 | O=c1[nH]cc(-c2cc([C@H]3C[C@@H]3c3ccc(OC(F)(F)F)cc3)c3nccn3n2)c(=O)[nH]1 (racemic) [Example 359, 5-(8-((1S,2S)-2-(4-(trifluoromethoxy)phenyl)cyclopropyl)imidazo[1,2-b]pyridazin-6-yl)pyrimidine-2,4(1H,3H)-dione] |
| 5.5 | O=c1[nH]cc(-c2cc([C@H]3C[C@@H]3c3ccc(OCC(F)(F)F)cn3)c3nccn3n2)c(=O)[nH]1 (racemic) [Example 363, 5-(8-((1S,2S)-2-(5-(2,2,2-trifluoroethoxy)pyridin-2-yl)cyclopropyl)imidazo[1,2-b]pyridazin-6-yl)pyrimidine-2,4(1H,3H)-dione] |
| 34 | O=c1[nH]cc(-c2cc([C@H]3C[C@@H]3c3ncc(C(F)(F)F)s3)c3nccn3n2)c(=O)[nH]1 (racemic) [Example 364, 5-(8-((1S,2S)-2-(5-(trifluoromethyl)thiazol-2-yl)cyclopropyl)imidazo[1,2-b]pyridazin-6-yl)pyrimidine-2,4(1H,3H)-dione] |
| 16.4 | O=c1[nH]cc(-c2cc([C@H]3C[C@@H]3c3cnn(C(F)(F)F)c3)c3nccn3n2)c(=O)[nH]1 (racemic) [Example 366, 5-(8-((1S,2S)-2-(1-(trifluoromethyl)-1H-pyrazol-4-yl)cyclopropyl)imidazo[1,2-b]pyridazin-6-yl)pyrimidine-2,4(1H,3H)-dione] |
| 20.3 | O=c1[nH]cc(-c2cc([C@H]3C[C@@H]3c3cnn(C(F)F)c3)c3nccn3n2)c(=O)[nH]1 (racemic) [Example 368, 5-(8-((2S,2S)-2-(1-(difluoromethyl)-1H-pyrazol-4-yl)cyclopropyl)imidazo[1,2-b]pyridazin-6-yl)pyrimidine-2,4(1H,3H)-dione] |
| 27.5 | O=c1[nH]cc(-c2cc([C@H]3C[C@@H]3c3ccn(C(F)F)n3)c3nccn3n2)c(=O)[nH]1 (racemic) [Example 369, 5-(8-((1S,2S)-2-(1-(difluoromethyl)-1H-pyrazol-3-yl)cyclopropyl)imidazo[1,2-b]pyridazin-6-yl)pyrimidine-2,4(1H,3H)-dione] |
| 15.7 | O=c1[nH]cc(-c2cc([C@H]3C[C@@H]3c3cnn(C(F)F)c3)c3ncc(F)n3n2)c(=O)[nH]1 (racemic) [Example 370, 5-(8-((1S,2S)-2-(1-(difluoromethyl)-1H-pyrazol-4-yl)cyclopropyl)-3-fluoroimidazo[1,2-b]pyridazin-6-yl)pyrimidine-2,4(1H,3H)-dione] |
| 9.23 | O=c1[nH]cc(-c2cc([C@H]3C[C@@H]3c3ccc(OC(F)(F)F)cn3)c3nccn3n2)c(=O)[nH]1 (racemic) [Example 372, 5-(8-((1S,2S)-2-(5-(trifluoromethoxy)pyridin-2-yl)cyclopropyl)imidazo[1,2-b]pyridazin-6-yl)pyrimidine-2,4(1H,3H)-dione] |
| 13.8 | O=c1[nH]cc(-c2cc([C@H]3C[C@@H]3c3ccc(OC(F)(F)F)cn3)c3ncc(F)n3n2)c(=O)[nH]1 (racemic) [Example 374, 5-(3-fluoro-8-((2S,2S)-2-(5-(trifluoromethoxy)pyridin-2-yl)cyclopropyl)imidazo[1,2-b]pyridazin-6-yl)pyrimidine-2,4(1H,3H)-dione] |
| 19.3 | O=c1[nH]cc(-c2cc([C@H]3C[C@@H]3c3ccc(OC(F)(F)F)nc3)c3nccn3n2)c(=O)[nH]1 (racemic) [Example 376, 5-(8-((2S,2S)-2-(6-(trifluoromethoxy)pyridin-3-yl)cyclopropyl)imidazo[1,2-b]pyridazin-6-yl)pyrimidine-2,4(1H,3H)-dione] |
| 22.6 | O=c1[nH]cc(-c2cc([C@H]3C[C@@H]3c3ncc(C(F)(F)F)cn3)c3nccn3n2)c(=O)[nH]1 (racemic) [Example 377, 5-(8-((1S,2S)-2-(5-(trifluoromethyl)pyrimidin-2-yl)cyclopropyl)imidazo[1,2-b]pyridazin-6-yl)pyrimidine-2,4(1H,3H)-dione] |
| 18.9 | O=c1[nH]cc(-c2cc([C@H]3C[C@@H]3c3ncc(C(F)(F)F)cn3)c3ncc(F)n3n2)c(=O)[nH]1 (racemic) [Example 378, 5-(3-fluoro-8-((1S,2S)-2-(5-(trifluoromethyl)pyrimidin-2-yl)cyclopropyl)imidazo[1,2-b]pyridazin-6-yl)pyrimidine-2,4(1H,3H)-dione] |
